Reference: US7250442B2, “Dihydroindol-2-one derivatives as steroid hormone nuclear receptor modulators” (Eli Lilly and Company, priority 2003, dated 2007)

Key:
human MR = biological target: T1, human MR (Homo sapiens, UniProt P08235); test: Mineralocorticoid Receptor Binding Assay ([3H]-aldosterone displacement); conditions: full length human MR expressed in Sf9 cells, 0.5 nM [3H]-aldosterone
T1 construct: The full length human MR gene is cloned from a human kidney or human brain cDNA library; made in house; host or cells: Sf9 insect cells (baculovirus, pAcHLT transfer vector)
T1 sequence (P08235 1-984): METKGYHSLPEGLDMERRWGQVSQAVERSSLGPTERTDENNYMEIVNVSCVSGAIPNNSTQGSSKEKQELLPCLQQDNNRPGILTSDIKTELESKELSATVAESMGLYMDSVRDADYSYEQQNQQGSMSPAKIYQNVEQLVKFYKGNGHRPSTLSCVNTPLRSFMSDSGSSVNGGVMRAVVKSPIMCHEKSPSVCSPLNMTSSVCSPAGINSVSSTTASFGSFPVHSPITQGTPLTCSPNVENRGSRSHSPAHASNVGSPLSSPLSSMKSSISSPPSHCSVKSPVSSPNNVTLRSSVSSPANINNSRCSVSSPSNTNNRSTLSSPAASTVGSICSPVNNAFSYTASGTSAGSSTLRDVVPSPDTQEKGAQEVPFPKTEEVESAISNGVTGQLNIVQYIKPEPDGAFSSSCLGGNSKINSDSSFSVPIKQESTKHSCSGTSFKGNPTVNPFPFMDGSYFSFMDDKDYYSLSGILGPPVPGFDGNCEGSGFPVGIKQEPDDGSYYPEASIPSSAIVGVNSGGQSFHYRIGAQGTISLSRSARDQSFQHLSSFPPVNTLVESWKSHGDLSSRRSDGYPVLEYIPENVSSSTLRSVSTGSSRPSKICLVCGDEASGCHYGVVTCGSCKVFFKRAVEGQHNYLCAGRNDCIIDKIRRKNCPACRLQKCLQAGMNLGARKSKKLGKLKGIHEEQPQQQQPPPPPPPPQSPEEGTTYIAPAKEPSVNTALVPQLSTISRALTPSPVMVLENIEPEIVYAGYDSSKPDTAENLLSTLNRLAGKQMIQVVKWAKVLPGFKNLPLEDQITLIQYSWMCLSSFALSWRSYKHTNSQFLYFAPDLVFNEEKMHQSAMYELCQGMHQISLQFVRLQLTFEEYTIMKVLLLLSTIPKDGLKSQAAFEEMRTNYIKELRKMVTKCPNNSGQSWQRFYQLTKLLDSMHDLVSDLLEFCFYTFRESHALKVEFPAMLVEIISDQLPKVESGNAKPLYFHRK
Description: Mineralocorticoid Receptor Binding Assay:
The full length human MR gene is cloned from a human kidney or human brain cDNA library. Briefly, using synthetic oligonucleotide primers (Eli Lilly and Company, Indianapolis) directed to nucleotides 20-54 and 3700-3666 of the human MR, polymerase chain reaction (PCR) is performed under standard conditions using a human cDNA library. The PCR reaction is performed in a final volume of 50 μl containing about 1 μl of a 50× stock solution of polymerase; about 1 μl of a 50× stock solution of dNTP; about 5 μl of an appropriate PCR buffer; about 1 μl of each primer; about 5 μl of a H. kidney or H. brain cDNA library; and about 36 μl of water. The reaction is allowed to denature for about 30 seconds at 95 degrees Celsius, anneal for about 30 seconds at 55 degrees Celsius, and extend for about 5 minutes at 72 degrees Celsius, the sequence being repeated for a total of about 35 cycles. The desired PCR product (3.68 Kb) is confirmed by gel electrophoresis and subsequently cut from the gel and stored at about −20 degrees Celsius until extraction. To extract the cDNA product from the agarose gel, the QIAEX II Gel Extraction protocol (QIAGEN, Inc.) is employed according to the manufacturer's instructions. Following extraction, the MR cDNA is cloned into an appropriate cloning vector (Zero Blunt TOPO PCR Cloning Kit (Invitrogen, Inc.) and a pAcHLT-baculovirus transfer vector (B.D./Pharminogen), then expressed in SF9 insect cells, essentially according to manufacturer's instructions. Sf9 cells are grown at a scale where gram quantity cell pellets are obtained for subsequent use in the MR binding assay. Harvested cell pellets are lysed by repeated freeze-thaw cycles (about 4) in a suitable lysis buffer then centrifuged at about 1×10^3 G (with the supernatant being saved for future assays).
MR binding assays are performed in a final total volume of about 250 μl containing about 20-25 μg of protein and 0.5 nM of [^3H]-aldosterone plus varying concentrations of test compound or vehicle. The assay binding buffer consists of 30 mM sodium molybdate, 30 mM of TRIS-HCl, 5 mM sodium phosphate, 5 mM sodium pyrophosphate, and about 10% glycerol, pH=7.5.
Briefly, assays are prepared at RT in 96-well Falcon 3072 plates, each well containing 210 μl of binding buffer, 10 μl of [^3H]-aldosterone, 10 μl of test compound/vehicle, and 20 μl of the resuspended receptor protein extract. Incubations are carried out at 4 degrees Celsius with shaking for about 16 hours. 200 μl aliquots of each incubation are filtered onto Millipore HA 0.45 micron 96-well filter plates, pre-moistened with cold 30 mM TRIS-HCl. The filter plates are suctioned dry with vacuum and immediately washed 3× with cold 30 mM TRIS-HCl. The plates are then punched out and the amount of receptor-ligand complex is determined by liquid scintillation counting using 4 ml of Ready Protein Plus™ liquid scintillation cocktail.
IC50 values (defined as the concentration of test compound required to decrease [^3H]-aldosterone binding by 50%) are then determined. Ki values for each respective test compound can then be calculated by application of the Cheng-Prusoff equation as described in Cheng et al., Relationship Between The Inhibition Constant (Ki) and The Concentration of Inhibitor Which Causes 50% Inhibition (IC50) of an Enzymatic Reaction, Biochem. Pharmacol., 22: 3099-31088; (1973).

[1] = in combination with standard CHF therapy, patients suffering from advanced CHF; cited from earlier work

| SMILES | Ki (human MR) [nM] | reduced cardiac related mortality [1] [%] | reduced frequency of hospitalization [1] [%] |
| --- | --- | --- | --- |
| Cc1cc(C2(c3cc(C)c(O)c(C)c3)C(=O)N(CC(=O)NC3CCCCC3)c3ccccc32)cc(C)c1O [Example 96, 2-[3,3-Bis-(4-hydroxy-3,5-dimethyl-phenyl)-2-oxo-2,3-dihydro-indol-1-yl]-N-cyclohexyl-acetamide] | ≤ 500 |  |  |
| C=CCN1C(=O)C(c2cc(C)c(O)c(C)c2)(c2cc(C)c(O)c(C)c2)c2ccccc21 [Example 104, 1-Allyl-3,3-bis-(4-hydroxy-3,5-dimethyl-phenyl)-1,3-dihydro-indol-2-one] | ≤ 500 |  |  |
| Cc1cc(C2(c3cc(C)c(O)c(C)c3)C(=O)N(CCc3ccccn3)c3ccccc32)cc(C)c1O [Example 122, 3,3-Bis-(4-hydroxy-3,5-dimethyl-phenyl)-1-(2-pyridin-2-yl-ethyl)-1,3-dihydro-indol-2-one] | ≤ 500 |  |  |
| CC(=O)S[C@@H]1CC2=CC(=O)CC[C@]2(C)[C@H]2CC[C@@]3(C)[C@@H](CC[C@@]34CCC(=O)O4)[C@H]12 [spironolactone] |  | 30 | 35 |

Second part, led by results:

| Ki (human MR) [nM] | SMILES | reduced cardiac related mortality [1] [%] | reduced frequency of hospitalization [1] [%] |
| --- | --- | --- | --- |
| ≤ 500 | Cc1cc(C2(c3cc(C)c(O)c(C)c3)C(=O)N(Cc3ccc4ccccc4c3)c3ccccc32)cc(C)c1O [Example 59, 3,3-Bis-(4-hydroxy-3,5-dimethyl-phenyl)-1-naphthalen-2-ylmethyl-1,3-dihydro-indol-2-one] |  |  |
| ≤ 500 | Cc1cc(C2(c3cc(C)c(O)c(C)c3)C(=O)N(Cc3ccc(C(=O)c4ccccc4)cc3)c3ccccc32)cc(C)c1O [Example 71, 1-(4-Benzoyl-benzyl)-3,3-bis-(4-hydroxy-3,5-dimethyl-phenyl)-1,3-dihydro-indol-2-one] |  |  |
| ≤ 500 | Cc1cc(C2(c3cc(C)c(O)c(C)c3)C(=O)N(Cc3cccnc3)c3ccccc32)cc(C)c1O [Example 103, 3,3-Bis-(4-hydroxy-3,5-dimethyl-phenyl)-1-pyridin-3-ylmethyl-1,3-dihydro-indol-2-one] |  |  |
